Results filed as inconclusive are left out.
Test system: cancer stem cell-like cells viability, luminescence
Assay: PubChem AID 449748

In the case of `O=[N+]([O-])c1ccc(Cl)c([N+](=O)[O-])c1`, the AC50 is reported as 4.77 µM.

From PubChem BioAssay AID449748 (Broad Institute, 2010)
